Consider 1 substance from patent publication US20230414715A1, “TRAIL COMPOUNDS FOR REDUCING CANCER TREAMENT SIDE EFFECTS” (BROWN UNIVERSITY, priority 2022, published 2023).

Holding throughout (assay type): in vivo, mouse
Assay [1] deals with serum cytokines. Nature of the assay: Serum cytokine analysis in the NanoString cohort. The protocol: (§1) All mouse serum samples were analyzed by a custom R&D systems Murine Premixed Multi- Analyte Kit (R&D Systems, Inc., Minneapolis, MN). The panel was run on a Luminex 200 Instrument (Luminex Corporation, Austin, TX) according to the manufacturer's instructions. Murine serum levels of Angiopoietin-2, BAFF/BLyS/TNFSF13B, CCL2/JE/MCP-1, CCL3/MIP-1 alpha, CCL4/MIP-1 beta, CCL5/RANTES, CCL7/MCP-3/MARC, CCL11/Eotaxin, CCL12/MCP-5, CCL20/MIP-3 alpha, CCL21/6Ckine, CCL22/MDC, Chitinase 3-like 1, CXCL1/GRO alpha/KC/CINC-1, CXCL10/IP-10/CRG-2, CXCL12/S DF- 1 alpha, Dkk-1, FGF basic/FGF2/bFGF, GDF-15, GM-CSF, Granzyme B, IFN-gamma, IGF-I/IGF-1, IL-1 alpha/IL-1F1, IL-1 beta/IL-1F2, IL-2, IL-3, IL-4, IL-6, IL-7, IL-10, IL-13, IL-16, IL-17/IL-17A, IL-27, IL-33 M-CSF, MMP-3, MMP-8, MMP-12, Prolactin, TWEAK/TNFSF12, VEGF, and VEGFR2/KDR/Flk-1 were measured. Analyte values were reported in picograms per milliliter (pg/mL). […] Latent TGF-β was activated in samples using 1 N HCl and samples were neutralized with 1.2 N NaOH/0.5 M HEPES. Samples were assayed immediately after neutralization.
One hour before radiation mice were grouped into control or given 10 mg/kg of TLY012 via IP injection (n=3/gender/treatment). Mice were treated and weighed twice a week up until 11 days post-radiation when all mice were euthanized.
Rodent sacrifice was performed following anesthetization with 100 mg/kg ketamine and 10 mg/kg xylazine administered intraperitoneally. ˜400-600 μL blood was first collected throughcardiac puncture with a 26G ⅝″ needle through the intercostal space into the left ventricle. […] 1 mL of 2 mg/mL EDTA in PBS was injected through the right ventricle to perfuse the lungs, after which the lungs were excised, washed further in PBS, submerged in RNAlater (Sigma-Aldrich, #R0901, Missouri, USA), and flash frozen in liquid nitrogen.

Another assay relates to C57B1/6 mice. As to the kind of experiment: Radiation pneumonitis after whole-thorax x-ray irradiation, H&E of lung, wild-type mice. The procedure:
However, before embarking on the planned experiment, we decided to perform a preliminary, short-term treatment feasibility experiment to ensure some mouse survival after 20 Gy of thoracic irradiation (FIG. 1B). The preliminary experiment was performed with WT and DR5-null mice that were irradiated with 20 Gy, and this was followed by either weekly doses of TIC10/ONC201 (100 mg/kg for total of two doses) or twice a week doses of TLY012 (10 mg/kg for total of four doses) for 2 weeks.
(§2) Animal studies were carried out at Brown University facilities with approval from Brown University IACUC. C57B1/6 mice (Taconic), mice with bi-allelic loss of TRAIL Death Receptor-(DR5-/-) in a C57B1/6 background, and mice with bi-allelic loss of TRAIL (TRAIL -/-) in a C57B1/6 background were given a single whole-thorax x-ray (Philips RT250) irradiation dose of 20 Gy with shielding of other organs. 8-15-week-old male and female mice of each genotype were used. […] Treatment was continued for two weeks, where TLY012 was administered twice a week and ONC201 was administered once a week. For each genetic background, two mice received a control PO, two mice received TLY012 IP, and two mice received ONC201 PO. Mice were weighed twice a week, and 13 days post-irradiation all mice were euthanized. Organs were harvested from the mice and 600 μL of blood was collected via cardiac puncture for serum cytokine analysis. Organs were preserved in 10% formalin then embedded in paraffin and sectioned at a distance of 5 μm. […] TRAIL-/- female mice were also subjected to a survival study with a single whole-thorax radiation doses of 15 Gy or 18 Gy treated with the same regimen of TLY012 or control (n=2/radiation dose/treatment) (FIG. 3B). In order to determine the lethal dose of radiation for C57B1/6 mice, female C57B1/6 mice were treated with a single dose of whole-thorax irradiation of 25 Gy in a survival study where they were treated with either TLY012 or remained control (n=6/treatment) (FIG. 3C).

Assay [2] relates to serum cytokines. Nature of the assay: Serum cytokine analysis (Luminex) of irradiated mice. The note with it: treated versus control. The protocol: as §2, §1
Where [3] appears, read: NanoString cohort, FIG. 5C, relative to untreated control.

Turning to “TLY012: N-terminal PEGylated recombinant human TRAIL; PEGylated trimeric TRAIL formulation”, in the assay with serum cytokines [1] (setting [3]), the CCL3/MIP-lalpha serum level result is given as “decrease”, the GDF-15 serum level result is “decrease” and the IL-1beta serum level result is reported as “increase”. In the assay on serum cytokines [1] (serum taken 3 days after last administration), the “fold-change in the cytokine levels of inflammatory markers in serum” value is recorded as “no statistically significant fold-change”. Moreover, in the assay with C57B1/6 mice (WT mice, 20 Gy thoracic irradiation, preliminary experiment, 2 weeks treatment, versus irradiated control, FIG. 1C), the protection from pneumonitis entry is “qualitative evidence of protection from pneumonitis”. Also, in the assay on C57B1/6 mice (irradiated C57B1/6 mice, FIG. 2), the “rescue from radiation-induced pneumonitis” value is “could rescue mice from radiation-induced pneumonitis”. For the same substance, in the assay on serum cytokines [2], the “CCL3/MIP-lalpha serum level” value is recorded as “increased”, the CXCL1 serum level entry is reported as “increased”, the “FGF basic serum level” value was “increase” and the GDF-15 serum level result is “increased”. Moreover, in the assay with serum cytokines [2], the IL6 serum level result is reported as “increased” and the MMP-8 serum level entry is reported as “increased”.
